# According to patent publication US12370193B2, “Method of inhibiting TREM-1” (UNIVERSITY OF FLORIDA RESEARCH FOUNDATION, INCORPORATED, priority 2019, dated 2025):
# How the values were obtained:
# TREM-1 [1] = assay: TREM-1 surface expression by FACS in LPS-stimulated RAW264.7 cells; assay type: cell-based, mouse; details: 50 hr incubation
# Protocol: (§1) FIG. 2B are graphs showing TREM-1 gene expression by q-PCR. […] All experiments were performed with 3 biological replicates and the median value of TREM-1 fluorescence was represented by the graph on the bottom.
# Flow cytometry and antibodies: For the analysis of macrophage activation, RAW264.7 cells (American Type Culture Collection) were pre-incubated with 5 μM 1903 for 18 h then stimulated with 1 μg/mL LPS (Escherichia coli 0127:B8, Sigma-Aldrich (St. Louis, MO)) for 6 h. RAW264.7 cells were stained with APC conjugated anti-TREM-1 antibody (eBioscience). Cell sorting was performed using LSRII (BD Bioscience).
# RORβ = assay: Gal4-RORβ co-transfection promoter-reporter assay; assay type: cell-based; details: Gal4 assay format
# Protocol: (§2) Reporter gene assays: Twenty-four hours before transfection, HEK293T cells were plated in 96-well plates at a density of 15×10^3 cells per well. UAS:luciferase reporter and Ga14-RORa, Gal4-RORb, Gal4-RORγ, Gal4-LXRα, or Gal4 PPARγ DNA co-transfections were performed using X-tremeGENE 9 (Roche). Twenty-four hours after transfection, the cells were treated with vehicle or compound. Twenty-four hours after treatment, the luciferase activity was measured using the Dual-Glo luciferase assay system (Promega). Results were analyzed using GraphPad Prism software.
# [2] = Food intake in lean mice and conditioned taste aversion; assay type: in vivo
# diet-induced obesity = assay: Diet-induced obese (DIO) mouse model; assay type: in vivo, DIO mice
# RORα = assay: Gal4-RORα co-transfection promoter-reporter assay; assay type: cell-based; details: Gal4 assay format
# Protocol: as §2
# [3] = Tolerability following chronic administration; assay type: in vivo
# OP9 cells = assay: Adipogenesis and gene expression in MDI-differentiated OP9 cells; assay type: cell-based
# Source text: (§3) FIGS. 1A to 1E: Pan modulator with poly-pharmacology. […] FIG. 1D is a graph showing PPARγ target genes (aP2 and CD36) expression in OP9 cells with and without MDI (IBMX, dexamethasone, insulin) treatment. […] SR1903 is represented as orange sticks while PPARγ, RORγ, and LXRβ are depicted as blue ribbons respectively. Specific residues driving the interaction labelled and shown as sticks as well. […] FIG. 1F are graphs showing RORγ target genes (IL17A and IL17F) expression in EL4 cells.
# FIG. 5A-5C: PPARγ and RORγ expression during adipogenesis of OP9 cells.
# Cell lines: HEK293T cells and EL4 cells (American Type Culture Collection) were maintained in DMEM and RAW264.7 cells (American Type Culture Collection) were maintained in RPMI-1640 with 10% heat inactivated FBS and antibiotics (penicillin, streptomycin; Invitrogen). OP9 cells (American Type Culture collection) were maintained in Alpha minimum essential medium (MEM-alpha) with 20% heat inactivated FBS. Twenty-four hours post-confluence, the OP9 cells were differentiated with IBMX ([…]), dexamethasone (1 μM), Insulin (10 μg/mL) for 48 hrs.
# (§4) Quantitative RT-PCR: Total RNA was extracted from EL4 or RAW264.7 cells using RNeasy Plus Micro Kit (Qiagen) and the RNA was reverse transcribed using the ABI reverse transcription kit (Applied Biosystems/Thermo Fisher Scientific, Waltham MA). Quantitative PCR was performed with a 7900HT Fast Real Time PCR System (Applied Biosystems) using SYBR green (Roche).
# TREM-1 [4] = assay: TREM-1 gene expression in LPS-stimulated RAW264.7 cells (RNA sequencing, qPCR); assay type: cell-based, mouse
# Protocol: as §1, §4
# mRNA sequencing analysis: RAW264.7 cells RNA extraction protocol for RNA seq was derived from Qiagen Kit-74106. Total RNA was quantified using the Qubit 2.0 Fluorometer (Invitrogen, Carlsbad, CA) and run on the Agilent 2100 Bioanalyzer (Agilent Technologies, Santa Clara, CA) for quality assessment. RNA samples of good quality with RNA Integrity Number (RIN)>8.0 were further processed. A RNase-free working environment was maintained and RNase-free tips, Eppendorf tubes and plates were utilized for the subsequent steps. Messenger RNA was selectively isolated from total RNA (300 ng input) using poly-T oligos attached to magnetic beads and converted to sequence-ready libraries using the TruSeq stranded mRNA sample prep protocol (Cat. #: RS-122-2101, Illumina, San Diego, CA). The final libraries were validated on the bioanalyzer DNA chips and qPCR quantified using primers that recognize the illumina adaptors. The libraries were then pooled at equimolar ratios, quantified using qPCR and loaded onto the NextSeq 500 flow cell at 1.8 pM final concentration. They were sequenced using the high-output, paired-end, 75-bp chemistry. Demultiplexed and quality filtered raw reads (fastq) generated from the NextSeq 500 were trimmed (adaptor sequences) using Flexbar 2.4 and aligned to the mouse reference database (mm9) using TopHat version 2.0.9 (Trapnell et al., 2009). HTseq-count version 0.6.1 was used to generate gene counts and differential gene expression analysis was performed using Deseq2 (Anders and Huber, 2010).
# murine TREM1 promoter = assay: TREM1 promoter reporter (luciferase) assay; assay type: cell-based, Mus musculus
# Protocol: Each LXRβ, PPARγ, and RORγ full length plasmid was co-transfected with TREM1/pGL3 using X-tremeGENE 9 into HEK293T cells. After 48 hrs, luciferase activity was measured using BriteLite plus assay system (PerkinElmer).
# LXRα = target: T1, LXRα (Homo sapiens, UniProt Q13133); assay: Gal4-LXRα co-transfection promoter-reporter assay; assay type: cell-based; details: HEK293T cells, read-out: LXR agonist activity EC50
# T1 sequence (Q13133 209-447 limits assumed): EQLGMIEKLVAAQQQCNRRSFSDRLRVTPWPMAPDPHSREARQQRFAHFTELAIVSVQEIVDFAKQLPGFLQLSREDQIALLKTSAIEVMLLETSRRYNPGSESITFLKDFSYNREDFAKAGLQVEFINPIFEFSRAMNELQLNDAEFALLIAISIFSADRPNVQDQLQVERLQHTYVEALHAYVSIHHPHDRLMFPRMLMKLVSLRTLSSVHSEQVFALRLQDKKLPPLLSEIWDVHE
# Source text: as §3, §2
# [5] = 22-week-old DIO mice, 14 days, 20 mg/kg
# [6] = DIO mice, 20 mg/kg i.p. for 14 days
# [7] = OP9 cells, MDI plus 5 uM SR1903, compared to MDI treatment alone
smiles,measurement,setting,value
"Cc1cc(CN2CCN(Cc3ccncc3)CC2)ccc1-c1ccc(C(O)(C(F)(F)F)C(F)(F)F)cc1 [SR1903, 1,1,1,3,3,3-hexafluoro-2-(2′-methyl-4′-((4-(pyridin-4-ylmethyl)piperazin-1-yl)methyl)-[1,1′-biphenyl]-4-yl)propan-2-ol]",LPS-induced TREM1 cell surface expression,TREM-1 [1],completely blocked
same,activity on RORβ,RORβ,lack activity
same,conditioned taste aversion,[2]; 20 mg/kg,no effect
same,food intake,[2]; lean mice,no effect on food intake
same,obesity related thymic involution,diet-induced obesity; [5],protected from obesity related thymic involution
same,thymus weight,diet-induced obesity; [5],increase in thymus weight
same,Socs3 expression in the hypothalamus,diet-induced obesity; DIO mice,repressed
same,fasting and fed insulin levels,diet-induced obesity; DIO mice,improved
same,fasting leptin levels,diet-induced obesity; DIO mice,did not alter
same,food intake,diet-induced obesity; DIO mice,reduced food intake
same,leptin resistance (leptin sensitivity test),diet-induced obesity; DIO mice,reduced
same,differentiation of αβTCR+CD4+ and αβTCR+CD8+ cells,diet-induced obesity; DIO mice thymocytes,no effect
same,λδT cell differentiation,diet-induced obesity; DIO mice thymocytes,increase
same,"HDL, TAG, and FFA",diet-induced obesity; [6],no effect
same,fasting glucose levels,diet-induced obesity; [6],improved
same,glucose excursion in glucose tolerance test,diet-induced obesity; [6],statistically significant improvement
same,total cholesterol and LDL,diet-induced obesity; [6],reduced
same,body weight reduction,"diet-induced obesity; DIO mice, 14 days of treatment",~15%
same,reduction of fat mass,"diet-induced obesity; DIO mice, 14 days, determined by NMR",~17%
same,leptin in freely feeding mice,"diet-induced obesity; DIO mice, compared to vehicle",statistically reduced
same,activity on RORα,RORα,lack activity
same,tolerability,[3],very well tolerated
same,expression of PPARγ,OP9 cells; OP9 adipogenesis,robustly repressed
same,expression of RORγ,OP9 cells; OP9 adipogenesis,no effect
same,lipid droplet formation,"OP9 cells; OP9 cells, MDI in combination with SR1903, 3 days",suppression of lipid droplet formation
same,repression of PPARγ target gene CD36 expression,OP9 cells; [7],87%
same,repression of PPARγ target gene aP2 (FABP4) expression,OP9 cells; [7],99%
same,LPS induction of TREM-1 gene expression (qPCR),TREM-1 [4]; 26 hr exposure,significantly repressed
same,LPS induction of TREM-1 gene expression (qPCR),TREM-1 [4]; 50 hr treatment,maintained repression
same,TREM1 signaling expression (RNA sequencing),"TREM-1 [4]; LPS-stimulated RAW264.7 cells, 10 μM compound vs DMSO-only",significantly suppressed
same,effect on TREM1 promoter activity,murine TREM1 promoter; co-expression with PPARγ and LXRβ,little effect
same,attenuation of TREM1 promoter activity,murine TREM1 promoter; co-expression with RORγ,~50%
same,EC50,LXRα,689 nM
